Reference: publication PMC9004391, “Cytochrome P450 Monooxygenase/Cytochrome P450 Reductase Bi-Enzymatic System Isolated From Ilex asprella for Regio-Specific Oxidation of Pentacyclic Triterpenoids” (Frontiers in Plant Science, 2022)
Values belong to the compound of their own block, whether it stands above or below them.

Assays:
IaAO4 = biological target: T1, IaAO4 (Ilex asprella, UniProt A0A976SHZ5); experiment: yeast metabolite analysis by GC-MS; format: cell-based; settings: S. cerevisiae WAT11tfAX co-expressing IaAO1
T1 construct: 513 aa ORF (1,539 bp); pESC-URA in S. cerevisiae WAT11tfAX co-expressing IaAO1
T1 sequence (A0A976SHZ5 1-512): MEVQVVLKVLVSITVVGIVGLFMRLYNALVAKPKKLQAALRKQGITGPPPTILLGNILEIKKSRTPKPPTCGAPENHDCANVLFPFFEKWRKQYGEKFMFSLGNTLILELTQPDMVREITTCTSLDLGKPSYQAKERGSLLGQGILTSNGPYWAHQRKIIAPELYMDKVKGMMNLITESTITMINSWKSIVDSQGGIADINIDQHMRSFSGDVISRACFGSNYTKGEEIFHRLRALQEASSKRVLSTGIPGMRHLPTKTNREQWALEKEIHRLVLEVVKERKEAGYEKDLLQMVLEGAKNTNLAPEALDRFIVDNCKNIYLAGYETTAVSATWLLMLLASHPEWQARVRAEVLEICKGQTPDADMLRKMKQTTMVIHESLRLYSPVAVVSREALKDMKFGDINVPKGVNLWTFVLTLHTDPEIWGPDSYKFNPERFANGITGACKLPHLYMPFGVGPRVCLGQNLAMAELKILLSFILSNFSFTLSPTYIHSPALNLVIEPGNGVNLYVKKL

IaAO5 = biological target: T2, IaAO5 (Ilex asprella, UniProt A0A976SHZ3); experiment: yeast metabolite analysis by GC-MS; format: cell-based; settings: S. cerevisiae WAT11tfA co-expressing IaAS2; C-24 oxidation to α-boswellic acid; not seen in strain WAT11tfAX
T2 construct: 515 aa ORF (1,545 bp); pESC-TRP in S. cerevisiae WAT11tfA co-expressing IaAS2
T2 sequence (A0A976SHZ3 1-514): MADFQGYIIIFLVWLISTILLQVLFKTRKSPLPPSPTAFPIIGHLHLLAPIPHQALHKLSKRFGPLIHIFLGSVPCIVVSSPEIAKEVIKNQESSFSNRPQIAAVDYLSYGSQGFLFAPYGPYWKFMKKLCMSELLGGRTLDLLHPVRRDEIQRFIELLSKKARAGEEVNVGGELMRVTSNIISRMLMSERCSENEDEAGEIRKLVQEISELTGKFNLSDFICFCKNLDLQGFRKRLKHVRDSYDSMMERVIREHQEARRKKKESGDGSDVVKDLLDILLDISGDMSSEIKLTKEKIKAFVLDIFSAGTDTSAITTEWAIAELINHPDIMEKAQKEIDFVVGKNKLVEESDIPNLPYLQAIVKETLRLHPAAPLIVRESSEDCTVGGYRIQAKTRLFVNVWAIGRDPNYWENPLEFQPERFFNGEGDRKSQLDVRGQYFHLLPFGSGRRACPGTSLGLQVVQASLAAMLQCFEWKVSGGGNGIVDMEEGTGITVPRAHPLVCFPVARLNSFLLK

IaCPR = system: T3, IaCPR; experiment: reductase activity by absorbance, microplate reader; format: biochemical, Ilex asprella; settings: electron acceptor for this constant, pH and temperature not printed in main text
T3 construct: full ORF 2,133 bp, 710 aa; pET32a (vector fusion tag), E. coli Transetta (DE3), Ni-NTA

SMILES: C[C@H]1[C@H](C)CC[C@]2(C(=O)O)CC[C@]3(C)C(=CC[C@@H]4[C@@]5(C)CC[C@H](O)C(C)(C)[C@@H]5CC[C@]43C)[C@H]12 [ursolic acid]
- yeast metabolite analysis by GC-MS (IaAO4; C-23 oxidation, products 23-hydroxyl- and 23-carboxyl-ursolic acid tentative): catalyzing the oxidation of both OA and UA at the C-23 position

SMILES: CC1(C)CC[C@]2(C)CC[C@]3(C)C(=CC[C@@H]4[C@@]5(C)CC[C@H](O)C(C)(C)[C@@H]5CC[C@]43C)[C@@H]2C1 [β-amyrin]
- yeast metabolite analysis by GC-MS (IaAO5): catalyzes oxidation at the C-24 position of β-amyrin to yield α-Boswellic acid

- Km (IaCPR): 7.69 µM
SMILES: NC(=O)C1=CN([C@@H]2O[C@H](COP(=O)(O)OP(=O)(O)OC[C@H]3O[C@@H](n4cnc5c(N)ncnc54)[C@H](OP(=O)(O)O)[C@@H]3O)[C@@H](O)[C@H]2O)C=CC1 [NADPH]

SMILES: CC1(C)CC[C@]2(C(=O)O)CC[C@]3(C)C(=CC[C@@H]4[C@@]5(C)CC[C@H](O)C(C)(C)[C@@H]5CC[C@]43C)[C@@H]2C1 [oleanolic acid]
- yeast metabolite analysis by GC-MS (IaAO4; C-23 oxidation to hederagenin and gypsogenic acid): catalyzing the oxidation of both OA and UA at the C-23 position
